Reference: ChEMBL document CHEMBL1201862, “PubChem BioAssay data set” (2004)
Values belong to the compound of their own block, whether it stands above or below them. Calls of active or inactive are those of the source.

Assays:
[1] = molecular target: T1, Eukaryotic translation initiation factor 4H (Homo sapiens, UniProt Q15056); assay: eIF4H binding inhibition – biochemical, uHTS, fluorescence polarization, translation initiation inhibitor project, primary screen (AID 2012)
[2] = molecular target: T2, Polyadenylate-binding protein 1 (Homo sapiens, UniProt P11940); assay: blockers of PABP interaction with poly(A) – biochemical, fluorescence polarization, […] (AID 2014)
T2 sequence (P11940 whole entry): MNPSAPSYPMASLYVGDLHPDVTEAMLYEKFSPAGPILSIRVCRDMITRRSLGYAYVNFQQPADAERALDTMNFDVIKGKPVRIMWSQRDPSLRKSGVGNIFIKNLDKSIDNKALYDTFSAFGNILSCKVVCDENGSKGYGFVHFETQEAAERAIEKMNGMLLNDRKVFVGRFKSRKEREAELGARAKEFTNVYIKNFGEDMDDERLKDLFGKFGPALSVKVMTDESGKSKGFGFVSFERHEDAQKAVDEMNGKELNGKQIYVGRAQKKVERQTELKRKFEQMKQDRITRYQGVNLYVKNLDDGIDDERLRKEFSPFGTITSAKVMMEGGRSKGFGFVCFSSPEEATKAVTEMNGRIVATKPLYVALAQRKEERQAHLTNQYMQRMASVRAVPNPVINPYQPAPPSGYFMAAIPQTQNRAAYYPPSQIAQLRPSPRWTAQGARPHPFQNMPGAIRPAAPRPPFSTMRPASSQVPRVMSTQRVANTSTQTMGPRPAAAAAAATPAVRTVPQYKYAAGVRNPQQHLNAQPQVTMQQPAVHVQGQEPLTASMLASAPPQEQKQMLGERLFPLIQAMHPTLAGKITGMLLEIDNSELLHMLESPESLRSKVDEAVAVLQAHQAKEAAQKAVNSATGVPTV

[3] = molecular target: T1, Eukaryotic translation initiation factor 4H; assay: inhibitors of translation initiation factor eIF4H – SAR follow-up (AID 435011); assay type: functional
[4] = molecular target: T3, DNA dC->dU-editing enzyme APOBEC-3A (Homo sapiens, UniProt P31941); assay: Dose Response confirmation of small molecule APOBEC3A DNA Deaminase Inhibitors via a fluorescence-based single-stranded DNA deaminase assay. [Related pubchem assays (depositor defined):AID493011, AID493024]; assay type: functional
T3 sequence (P31941 whole entry): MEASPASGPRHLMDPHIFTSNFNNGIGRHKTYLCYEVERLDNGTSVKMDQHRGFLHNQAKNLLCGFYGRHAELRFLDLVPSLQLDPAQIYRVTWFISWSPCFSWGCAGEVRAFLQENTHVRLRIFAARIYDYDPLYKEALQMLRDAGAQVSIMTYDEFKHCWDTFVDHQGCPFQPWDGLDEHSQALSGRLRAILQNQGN

[5] = molecular target: T2, Polyadenylate-binding protein 1; assay: PABP inhibition in translation initiation, SAR follow-up (AID 435018); assay type: functional
[6] = molecular target: T4, DNA dC->dU-editing enzyme APOBEC-3G (Homo sapiens, UniProt Q9HC16); assay type: functional
T4 sequence (Q9HC16 whole entry): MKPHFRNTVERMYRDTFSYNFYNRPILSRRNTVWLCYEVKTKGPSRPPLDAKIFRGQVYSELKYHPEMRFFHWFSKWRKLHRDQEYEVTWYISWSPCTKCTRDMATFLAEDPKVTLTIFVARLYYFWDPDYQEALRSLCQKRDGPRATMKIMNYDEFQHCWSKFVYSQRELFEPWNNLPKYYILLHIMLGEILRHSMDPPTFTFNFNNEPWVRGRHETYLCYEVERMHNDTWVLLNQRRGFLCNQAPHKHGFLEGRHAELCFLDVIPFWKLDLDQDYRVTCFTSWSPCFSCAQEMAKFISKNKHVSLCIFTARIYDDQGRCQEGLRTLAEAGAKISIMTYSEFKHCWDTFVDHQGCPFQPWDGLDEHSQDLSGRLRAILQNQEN

[7] = molecular target: T3, DNA dC->dU-editing enzyme APOBEC-3A; assay: A3A deaminase inhibition for selectivity – biochemical, dose response (AID 504722); assay type: functional
[8] = molecular target: T4, DNA dC->dU-editing enzyme APOBEC-3G; assay: Dose Response confirmation of small molecule APOBEC3G DNA Deaminase Inhibitors via a fluorescence-based single-stranded DNA deaminase assay. [Related pubchem assays (depositor defined):AID493012, AID493028]; assay type: functional
[9] = molecular target: T5, Rac GTPase-activating protein 1 (Homo sapiens, UniProt Q9H0H5); assay: blockers of MgcRacGAP-driven Rac1 GTP hydrolysis – biochemical, ADP Hunter fluorescence, primary and confirmatory, confirmation (AID 624330); assay type: functional
T5 sequence (Q9H0H5 whole entry): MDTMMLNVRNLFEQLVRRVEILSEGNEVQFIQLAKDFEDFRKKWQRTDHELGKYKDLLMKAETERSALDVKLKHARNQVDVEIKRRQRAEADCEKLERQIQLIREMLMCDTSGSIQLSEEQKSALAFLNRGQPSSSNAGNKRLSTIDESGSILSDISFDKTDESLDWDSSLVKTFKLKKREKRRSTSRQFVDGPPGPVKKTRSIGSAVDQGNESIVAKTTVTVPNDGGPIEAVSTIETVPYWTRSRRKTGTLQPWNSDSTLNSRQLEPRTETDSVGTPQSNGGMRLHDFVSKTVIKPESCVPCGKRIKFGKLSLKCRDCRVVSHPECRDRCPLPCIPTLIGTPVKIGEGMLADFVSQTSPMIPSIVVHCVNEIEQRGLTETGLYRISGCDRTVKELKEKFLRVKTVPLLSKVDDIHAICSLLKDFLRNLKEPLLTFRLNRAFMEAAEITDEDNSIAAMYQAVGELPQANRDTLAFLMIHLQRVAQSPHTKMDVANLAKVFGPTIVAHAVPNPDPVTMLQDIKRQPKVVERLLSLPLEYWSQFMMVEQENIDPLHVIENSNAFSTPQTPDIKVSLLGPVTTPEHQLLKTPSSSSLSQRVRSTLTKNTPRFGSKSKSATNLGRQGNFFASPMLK

[10] = molecular target: Melanin-concentrating hormone receptor 1 (Homo sapiens, UniProt Q99705); assay: Late-stage fluorescence-based counterscreen for antagonists of the G-protein coupled receptor 7 (GPR7): cell-based dose response assay to identify antagonists of the melanin-concentrating hormone receptor 1 (MCHR1). [Related pubchem assays (depositor defined):AID1861, AID1880, AID1952, AID2148, AID2251, AID2257, AID485339]; assay type: functional;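 note: stimulated with 30 nM MCH peptide agonist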
Sequence of Melanin-concentrating hormone receptor 1 (Q99705 whole entry): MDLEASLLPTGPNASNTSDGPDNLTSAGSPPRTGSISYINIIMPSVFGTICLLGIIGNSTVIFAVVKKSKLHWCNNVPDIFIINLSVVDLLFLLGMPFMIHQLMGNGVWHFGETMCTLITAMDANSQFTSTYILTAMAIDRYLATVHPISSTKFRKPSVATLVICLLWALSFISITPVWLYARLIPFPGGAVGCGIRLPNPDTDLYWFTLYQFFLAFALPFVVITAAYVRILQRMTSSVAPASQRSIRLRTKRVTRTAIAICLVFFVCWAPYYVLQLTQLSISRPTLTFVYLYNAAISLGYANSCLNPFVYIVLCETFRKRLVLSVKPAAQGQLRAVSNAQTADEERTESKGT

[11] = molecular target: T6, Neuropeptides B/W receptor type 1 (Homo sapiens, UniProt P48145); assay: human NPBW1 receptor blockade, IC50 – cell-based, fluorescence, dose response, late-stage follow-up (AID 463251); assay type: functional
T6 sequence (P48145 whole entry): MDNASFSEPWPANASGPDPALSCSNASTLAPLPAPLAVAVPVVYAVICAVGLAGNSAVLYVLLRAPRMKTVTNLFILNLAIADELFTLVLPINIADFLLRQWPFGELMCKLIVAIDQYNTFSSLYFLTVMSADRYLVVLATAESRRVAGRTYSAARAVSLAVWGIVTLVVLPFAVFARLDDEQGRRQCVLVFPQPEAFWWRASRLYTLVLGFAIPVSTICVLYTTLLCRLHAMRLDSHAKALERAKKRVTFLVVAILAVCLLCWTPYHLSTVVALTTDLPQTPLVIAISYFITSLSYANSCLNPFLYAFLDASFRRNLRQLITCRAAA

[12] = molecular target: Voltage-dependent T-type calcium channel subunit alpha-1H (Homo sapiens, UniProt O95180); assay: human CACNA1H calcium influx blockade – cell-based, synthetic library set 1, calcium flux (AID 493022); assay type: functional
Cannabinoid receptor 2 [13] = molecular target: T7, Cannabinoid receptor 2 (Homo sapiens, UniProt P34972); assay: SAR analysis of antagonists of the Cannabinoid Receptor 2 using an Image-Based Assay - Set 2. [Related pubchem assays (depositor defined):AID1961, AID1965]; assay type: functional
T7 sequence (P34972 whole entry): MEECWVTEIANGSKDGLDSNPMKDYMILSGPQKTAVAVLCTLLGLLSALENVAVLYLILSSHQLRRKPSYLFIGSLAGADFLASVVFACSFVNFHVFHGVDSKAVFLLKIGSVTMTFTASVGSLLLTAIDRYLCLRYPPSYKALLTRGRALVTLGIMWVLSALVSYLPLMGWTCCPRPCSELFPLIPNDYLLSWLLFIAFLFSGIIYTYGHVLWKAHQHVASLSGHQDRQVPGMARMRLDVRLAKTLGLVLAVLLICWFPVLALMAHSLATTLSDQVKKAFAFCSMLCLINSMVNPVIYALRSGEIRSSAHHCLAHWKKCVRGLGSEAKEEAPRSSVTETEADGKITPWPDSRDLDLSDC

[14] = molecular target: G-protein coupled receptor 55 (Homo sapiens, UniProt Q9Y2T6); assay: SAR analysis of selective Agonists of GPR55 using an Image-Based Assay - Set 2. [Related pubchem assays (depositor defined):AID1961, AID1965]; assay type: functional
Sequence of G-protein coupled receptor 55 (Q9Y2T6 whole entry): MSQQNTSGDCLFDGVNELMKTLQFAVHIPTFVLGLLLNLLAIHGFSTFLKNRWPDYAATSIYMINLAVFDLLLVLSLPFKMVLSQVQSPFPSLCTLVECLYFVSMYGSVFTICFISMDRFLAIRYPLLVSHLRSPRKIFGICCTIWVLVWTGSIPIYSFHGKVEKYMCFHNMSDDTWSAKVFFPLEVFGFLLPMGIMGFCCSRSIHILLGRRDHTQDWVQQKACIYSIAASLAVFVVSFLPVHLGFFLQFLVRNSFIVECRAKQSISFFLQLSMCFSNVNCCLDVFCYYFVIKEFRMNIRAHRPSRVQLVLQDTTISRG

Cannabinoid receptor 2 [15] = molecular target: T7, Cannabinoid receptor 2; assay: SAR analysis of agonists of the Cannabinoid Receptor 2 using an Image-Based Assay - Set 2. [Related pubchem assays (depositor defined):AID1961, AID1965]; assay type: functional
[16] = molecular target: T8, G-protein coupled receptor 35 (Homo sapiens, UniProt Q9HC97); assay: SAR analysis of Agonists of the GPR35 Receptor using an Image-Based Assay - Set 3. [Related pubchem assays (depositor defined):AID1961, AID1965]; assay type: functional
T8 sequence (Q9HC97 whole entry): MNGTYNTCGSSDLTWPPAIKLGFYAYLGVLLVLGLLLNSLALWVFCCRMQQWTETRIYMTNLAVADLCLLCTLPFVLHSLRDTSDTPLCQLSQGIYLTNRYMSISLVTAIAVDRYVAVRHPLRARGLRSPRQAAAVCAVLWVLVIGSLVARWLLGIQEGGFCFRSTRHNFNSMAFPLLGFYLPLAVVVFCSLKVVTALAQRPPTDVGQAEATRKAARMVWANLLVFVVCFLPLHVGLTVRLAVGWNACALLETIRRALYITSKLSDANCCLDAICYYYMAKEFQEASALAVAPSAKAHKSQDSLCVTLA

Cannabinoid receptor 1 [17] = molecular target: T9, Cannabinoid receptor 1 (Homo sapiens, UniProt P21554); assay: SAR analysis of antagonists of the Cannabinoid Receptor 1 using an Image-Based Assay - Set 3. [Related pubchem assays (depositor defined):AID1961, AID1965]; assay type: functional
T9 sequence (P21554 whole entry): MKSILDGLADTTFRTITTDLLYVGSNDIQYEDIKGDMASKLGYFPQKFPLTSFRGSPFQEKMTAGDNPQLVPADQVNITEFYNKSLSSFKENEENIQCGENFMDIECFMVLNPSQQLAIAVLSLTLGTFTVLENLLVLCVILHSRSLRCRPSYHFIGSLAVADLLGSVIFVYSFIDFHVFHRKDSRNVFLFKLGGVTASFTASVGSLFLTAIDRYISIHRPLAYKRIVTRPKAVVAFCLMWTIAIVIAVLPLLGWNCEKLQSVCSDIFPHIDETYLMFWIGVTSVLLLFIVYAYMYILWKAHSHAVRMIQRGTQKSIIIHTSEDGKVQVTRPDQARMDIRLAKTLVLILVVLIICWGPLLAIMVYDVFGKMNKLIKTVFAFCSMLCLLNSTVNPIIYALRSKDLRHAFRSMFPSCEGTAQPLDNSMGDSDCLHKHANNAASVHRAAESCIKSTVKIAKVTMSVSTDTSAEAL

Cannabinoid receptor 1 [18] = molecular target: T9, Cannabinoid receptor 1; assay: SAR analysis of agonists of the Cannabinoid Receptor 1 using an Image-Based Assay - Set 3. [Related pubchem assays (depositor defined):AID1961, AID1965]; assay type: functional
[19] = molecular target: T8, G-protein coupled receptor 35; assay: SAR analysis of Antagonists of the GPR35 Receptor using an Image-Based Assay - Set 4. [Related pubchem assays (depositor defined):[…]]; assay type: functional
[20] = molecular target: Glyceraldehyde-3-phosphate dehydrogenase (Homo sapiens, UniProt P04406)
Sequence of Glyceraldehyde-3-phosphate dehydrogenase (P04406 whole entry): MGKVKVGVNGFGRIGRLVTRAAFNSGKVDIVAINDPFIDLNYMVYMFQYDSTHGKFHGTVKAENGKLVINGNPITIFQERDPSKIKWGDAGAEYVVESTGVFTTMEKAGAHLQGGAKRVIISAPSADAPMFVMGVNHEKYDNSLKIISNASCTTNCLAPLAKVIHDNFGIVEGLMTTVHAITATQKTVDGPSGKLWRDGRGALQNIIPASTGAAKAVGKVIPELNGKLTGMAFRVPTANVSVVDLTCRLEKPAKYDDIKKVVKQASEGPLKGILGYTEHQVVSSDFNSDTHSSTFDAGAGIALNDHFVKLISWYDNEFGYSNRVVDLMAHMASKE

[21] = molecular target: Alkaline phosphatase, placental type (Homo sapiens, UniProt P05187); assay: human placental alkaline phosphatase inhibition – biochemical, luminescence, confirmation (AID 1512); assay type: functional
Sequence of Alkaline phosphatase, placental type (P05187 whole entry): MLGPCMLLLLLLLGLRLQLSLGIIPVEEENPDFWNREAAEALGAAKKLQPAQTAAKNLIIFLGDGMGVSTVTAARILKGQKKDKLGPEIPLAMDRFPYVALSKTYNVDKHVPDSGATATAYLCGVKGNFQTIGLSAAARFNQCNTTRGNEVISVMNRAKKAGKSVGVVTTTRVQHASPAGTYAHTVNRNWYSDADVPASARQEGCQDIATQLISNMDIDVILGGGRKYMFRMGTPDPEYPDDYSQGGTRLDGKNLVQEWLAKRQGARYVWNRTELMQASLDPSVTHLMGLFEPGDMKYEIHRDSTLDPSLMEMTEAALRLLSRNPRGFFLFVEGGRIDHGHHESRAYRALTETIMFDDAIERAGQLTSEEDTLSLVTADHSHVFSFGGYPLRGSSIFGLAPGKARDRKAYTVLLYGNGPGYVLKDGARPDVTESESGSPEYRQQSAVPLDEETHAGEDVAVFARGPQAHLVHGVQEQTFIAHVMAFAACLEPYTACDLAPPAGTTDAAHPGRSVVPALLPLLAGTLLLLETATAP

Compound: CCOC(=O)c1ccc2c(c1)N(CC)C(=O)c1ccccc1S2
IC50 [1]: > 100 µM (inactive)
IC50 [2]: 12.2 µM (active)
IC50 [3]: 20.7 µM (active)
IC50 [4]: 2.24 µM (active)
IC50 [5]: 3.48 µM (active)
IC50 [6]: 4.15 µM (active)

Compound: CCOCCCn1c(=O)c2ccccc2n2c(S)nnc12
IC50 [7]: > 100 µM (inactive)
IC50 [8]: 5.54 µM (active)
IC50 [9]: 21.9 µM (active)

IC50 [10]: > 20 µM (inactive)
IC50 [11]: 4.1 µM (active)
Compound: COC(=O)c1ccc(-n2ncc(Cl)c(Oc3ccc(OC)cc3)c2=O)cc1

EC50 [12]: 10 µM (active)
Compound: O=C(COc1ccccc1F)Nc1nnc(-c2ccc3c(c2)OCCO3)o1

IC50 (Cannabinoid receptor 2 [13]): > 32 µM (inactive)
EC50 [14]: > 32 µM (inactive)
EC50 (Cannabinoid receptor 2 [15]): > 32 µM (inactive)
EC50 [16]: > 32 µM (inactive)
IC50 (Cannabinoid receptor 1 [17]): > 32 µM (inactive)
EC50 (Cannabinoid receptor 1 [18]): > 32 µM (inactive)
IC50 [19]: > 32 µM (inactive)
Compound: Cc1cccc(N2CCN(C(=O)c3cccc(S(=O)(=O)N4CCOCC4)c3)CC2)c1C

IC50 [20]: > 100 µM (not active)
IC50 [21]: > 100 µM (inactive)
Compound: CN(C)C(=O)c1cc(-c2ccc(Cl)cc2Cl)n[nH]1
